Values quoted from earlier work in patent publication US9173857B2, “Controlled dose drug delivery system” (Shire LLC, priority 2006, dated 2015).

Tests used:
[1] = wax-surfactant coating, higher coating level (60%)
[2] = pulsatile capsule with release after a nominal 5-hr period; majority of subjects

| lag time of drug release [1] | time required for complete release after the lag time [1] | amounts of the drug observed in the blood [2] | Compound |
| --- | --- | --- | --- |
| two-hour | three hours |  | Cn1c(=O)c2[nH]cnc2n(C)c1=O [theophylline] |
|  |  | no measurable amounts | C[C@H](CS)C(=O)N1CCC[C@H]1C(=O)O [captopril] |
